Results reported in US20120156699A1, “Pathogenic TH17 Cells; related reagents and methods” (Schering Corporation, priority 2007, published 2012).

Tests used:
IL-23R = IL-23R expression in naïve human CD4+ T cells, flow cytometry; format: cell-based; details: 10 μM PGE2, 10 μM butaprost, 35 μM misoprostol, 10 μM sulprostone; restimulated 48 hours; FIGS. 4A, 4B
Description: FIGS. 4A and 4B present results obtained in experiments in which naïve human CD4^+ T cells are activated with T cell activation beads and cultured in the presence or absence of PGE2 or specific EP receptors agonists.
(§1) Methods used in this example are generally as described at Wilson et al. (2007) Nature Immunology 8:950. More specifically, cell culture is performed as follows. Naïve CD4^+ CD45RO^− T cells are isolated and cultured as described previously (Wilson et al. (2007), supra). Memory CD4^+ CD45RA^− T cells are isolated using the memory T cell isolation kit, human (Miltenyi, Auburn, Calif.), according to the manufacturer's instructions. Where indicated, 50 ng/ml hIL-23, 50 ng/ml hIL-1β (R&D Systems, Minneapolis, Minn.), 10 μM PGE2 (Sigma, St. Louis, Mo.), 10 μM butaprost (EP2 selective agonist), 35 μM misoprostol (EP4, EP3>EP1>EP2 agonist), and/or 10 μM sulprostone (EP1, EP3 agonist, Cayman Chemical, Ann Arbor, Mich.) are added.
For analysis of cell surface proteins, cells are stained with anti-CD4, anti-CD3, anti-CD45RA, anti-CCR6 (BD Biosciences), and/or anti-IL-23R (R&D Systems) antibodies. Data are acquired on a LSR II cytometer and analyzed with FlowJo software (Tree Star, Ashland, Oreg.).
Further experiments are performed to determine the effect of PGE2, or agonists thereof, on the expression of IL-23R in naïve human CD4^+ T cells in culture. […]

naïve human CD4+ T cells = test: Cytokine expression by naïve human CD4+ T cells cultured with IL-1β and IL-23, with or without PGE2 or EP receptor agonists; format: cell-based; details: together with IL-1β and IL-23
Description: FIGS. 5A, 5B and 5C present results obtained in naïve human CD4^+ T cells activated with T cell activation beads and cultured in the presence or absence of IL-23 and IL-1β, with or without PGE2 or the EP receptors agonists butaprost, misoprostol, and sulprostone. Data in FIGS. 5A-5C reflect IL-17A, IFN-γ and IL-10 production in cell-free supernatants of T cells restimulated for 48 hours, respectively. Results in each figure are representative of two independent experiments.
as §1
ELISA and electrochemiluminescence assays are performed as described previously (Wilson et al. (2007), supra). IL-10 ELISA is performed using a kit from R&D Systems. […]

[1] = test system: human memory CD4+ T cells; test: Cytokine production and gene expression in activated human memory CD4+ T cells; format: cell-based
Description: FIGS. 7A and 7B present results obtained with human memory CD4^+ T cells activated and cultured for three days in the presence of IL-23, IL-1β, and/or PGE2. […] Results from nine independent donors are shown. […] Results from four different donors are shown. Horizontal lines represent medians.
as §1
ELISA and electrochemiluminescence assays are performed as described previously (Wilson et al. (2007), supra). IL-10 ELISA is performed using a kit from R&D Systems.
(§2) Real-time quantitative PCR is performed as described previously (Wilson et al. (2007), supra).
Intervention with therapeutic agents, such as antagonists of the inflammatory cytokines and non-cytokine immunomodulators, might therefore be expected to be beneficial when administered both systemically and also when administered locally at (or near) the site of inflammation.

IL-1R1 = IL-1R1 gene expression in response to PGE2; format: cell-based, human; details: data not shown
Description: as §2
Further experiments are performed to determine the effect of PGE2, or agonists thereof, on the expression of IL-23R in naïve human CD4^+ T cells in culture. […] In addition, IL-1R1 gene expression is increased in response to PGE2 (data not shown).

CCR6 = CCR6 expression in naïve human CD4+ T cells, flow cytometry; format: cell-based; details: PGE2 added to IL-1β and IL-23; FIG. 6A
Description: FIGS. 6A, 6B and 6C present results obtained with naïve human CD4^+ T cells cultured as described with reference to FIGS. 5A-5C. […] Results represent mean±s.e.m. of nine independent experiments. For data presented in FIGS. 6B and 6C, naïve T cells are cultured in the presence of IL-1β, IL-23, and PGE2. After reactivation, CD4^+ CCR6^+ and CD4^+CCR6^− T cells are sorted and cultured for seven days in the presence of IL-2. […] Results in each of FIGS. 6B and 6C reflect the results of four independent experiments.
Methods used in this example are generally as described at Wilson et al. (2007) Nature Immunology 8:950. More specifically, cell culture is performed as follows. Naïve CD4^+ CD45RO^− T cells are isolated and cultured as described previously (Wilson et al. (2007), supra). Memory CD4^+ CD45RA^− T cells are isolated using the memory T cell isolation kit, human (Miltenyi, Auburn, Calif.), according to the manufacturer's instructions. […]
For analysis of cell surface proteins, cells are stained with anti-CD4, anti-CD3, anti-CD45RA, anti-CCR6 (BD Biosciences), and/or anti-IL-23R (R&D Systems) antibodies. Data are acquired on a LSR II cytometer and analyzed with FlowJo software (Tree Star, Ashland, Oreg.). […]

PBMC CD161+ Thmem cells = test: IL-17 production by PBMC CD161+ Thmem cells from CD patients cultured with IL-23; format: cell-based, human
Description: (§3) Colon and peripheral blood (PB) samples are obtained from Crohn's Disease patients. Lamina propria mononuclear cells (LPMC) are prepared from colon samples by dissociation of the epithelial layer of the mucosa, collagenase digestion of the lamina propria, and density gradient centrifugation. Peripheral blood mononuclear cells (PBMC) are isolated from PB by density gradient centrifugation and lysis of red blood cells.
This Th17 phenotype is increased in Crohn's disease patients.

CD161+ Thmem cells = test: IL-17 production by lamina propria CD161+ Thmem cells cultured with IL-23; format: cell-based, human; details: CD161+ Thmem cells cultured in the presence of IL-23
Description: as §3
Colon samples from CD patients contain approximately 20-fold more CD161^+ CD4^+ memory T cells, as determined by flow cytometry, than colon samples from normal subjects. FACS® flow cytometry purified lamina propria CD161^+ Thmem cells are found to produce 4 to 6-fold more IL-17 than CD161^− Thmem cells (as measured by ELISA) in both CD and normal samples.

[2] = memory T cells cultured three days, FIG. 7A

CCCC1([C@H](O)C/C=C/[C@H]2[C@H](O)CC(=O)[C@@H]2CCCCCCC(=O)OC)CCC1 [butaprost]
percentage of IL-23R expressing CD4+ T cells (IL-23R): more than doubles | IL-17 expression (naïve human CD4+ T cells; FIG. 5A): somewhat greater increase in IL-17 expression than misoprostol

CCCCC[C@H](O)/C=C/[C@H]1[C@H](O)CC(=O)[C@@H]1C/C=C\CCCC(=O)O [PGE2, prostaglandin E2]
IFN-γ levels [1, 2]: does not promote increased levels | IL-10 levels [1, 2]: does not promote increased levels | IL-17A levels [1, 2]: promotes increased levels | ROR-γt expression ([1]; real-time RT-PCR, FIG. 7B): promotes increased levels of the IL-17A and expression of ROR-γt | percentage of IL-23R expressing CD4+ T cells (IL-23R): more than doubles | IL-1R1 gene expression (IL-1R1): increased | IL-10 expression (naïve human CD4+ T cells; FIG. 5C): Downregulation | percentage of naïve human CD4+ T cells expressing CCR6 (CCR6): increase in the percentage

B1: IL-23: protein consisting of two polypeptide subunits, p19 and p40 (protein, UniProt Q9NPF7 20-189; P29460 23-328, looked up)
Interleukin-23 subunit alpha: RAVPGGSSPAWTQCQQLSQKLCTLAWSAHPLVGHMDLREEGDEETTNDVPHIQCGDGCDPQGLRDNSQFCLQRIHQGLIFYEKLLGSDIFTGEPSLLPDSPVGQLHASLLGLSQLLQPEGHHWETQQIPSLSPSQPWQRLLLRFKILRSLQAFVAVAARVFAHGAATLSP
Interleukin-12 subunit beta: IWELKKDVYVVELDWYPDAPGEMVVLTCDTPEEDGITWTLDQSSEVLGSGKTLTIQVKEFGDAGQYTCHKGGEVLSHSLLLLHKKEDGIWSTDILKDQKEPKNKTFLRCEAKNYSGRFTCWWLTTISTDLTFSVKSSRGSSDPQGVTCGAATLSAERVRGDNKEYEYSVECQEDSACPAAEESLPIEVMVDAVHKLKYENYTSSFFIRDIIKPDPPKNLQLKPLKNSRQVEVSWEYPDTWSTPHSYFSLTFCVQVQGKSKREKKDRVFTDKTSATVICRKNASISVRAQDRYYSSSWSEWASVPCS
IL-17 production (PBMC CD161+ Thmem cells): increased IL-17 production | enhancement of IL-17 production (CD161+ Thmem cells): approximately 3 fold
